The nature of data set [1]: Gel test (vial inversion). The format is physicochemical. Here is the method: A weighed amount of solid was dissolved in 0.5 or 1 ml of the solvent in a closed 2.0 ml vial using a heating gun or a heating block and subsequently slowly cooled to room temperature by standing in the air. Gelation was determined by turning the vial upside down and gentle shaking. If no flow of the mass was observed, the mass was defined to be a gel. Alternatively, a weighed amount of solid was dissolved in 1 mL of solvent by the addition of acid or base. The subsequent addition of base or acid then gave gelation. Alternatively, a weighed amount of solid was dissolved in a small amount of solvent. The subsequent addition of a large amount of non-solvent then gave gelation. Alternatively, the solution of gelator/thickener was added to the non-solvent, resulting in gelation. Alternatively, a weighed amount of solid was mixed with 1 mL of solvent by sonication. After stopping the sonication, gelation occurred. Alternatively a weighed amount of solid was mixed with 1 mL of solvent by brief vortexing after which gelation occurred. Alternatively a weighed amount of solid was mixed with 1 mL of solvent after which gelation occurred.

The next data set relates to α-chymotrypsin. The experiment in a line: α-chymotrypsin-induced cleavage followed by fluorescence detection of released 6-AQ. The format is biochemical. An excerpt:
In order to investigate the enzymatic cleavage of a gelator-drug conjugate, we selected the enzyme α-chymotrypsin, which is capable of cleaving amide bonds at the C═O terminus of L-phenylalanine-based substrates like compound 12 (CHex(AmPhe-6AQ)(AmEtOEtOH)2), resulting here in the release of the fluorogenic “model drug” 6-aminoquinoline (6-AQ). This system allows easy monitoring of the cleavage kinetics owing to the fact that the excitation and emission maxima for the amide and amino form of this compound are adequately separated (amide form: λex=315 nm, λem=370 nm, amine form: λex=339 nm, λem=550 nm).
Gelator 12 was dissolved in a small amount of DMSO (100 μL), whereas α-chymotrypsin was dissolved in a buffer solution (Tris-HCl, 0.1 M, pH 7.75, 900 μL). […] In order to determine the effect of gelation on the enzymatic cleavage, the water-soluble, non-gelating, model substrate 39 was synthesized with a structure similar to that of gelator 12.
Fluorescence experiments were carried out in which the α-chymotrypsin-induced cleavage of compounds 12 and 39 was followed through the detection of 6-AQ.
Legend to FIG. 2 (from bottom to top): Trace a: gel of gelator 12 (0.5 wt %=7.54 mM); trace b: gel of gelator 12 (0.5 wt %=7.54 mM)+α-chymotrypsin ([…]); trace c: gel of gelator 12 (0.5 wt %=7.54 mM)+compound 39 (7.54 mM)+α-chymotrypsin (40 μM); trace d: solution of compound 39 (7.54 mM)+α-chymotrypsin (40 mM)
Performing the cleavage experiments for both 12 and 39 at different substrate concentrations and plotting the initial rates as a function of the substrate concentration (i.e., 12 or 39) results in the points plotted in FIG. 3. […] The initial rates for gelator 12, however, increase up to a certain point, after which they remain the same, even at much higher concentrations. From the corresponding Lineweaver-Burke and Eadie-Hofstee plots, values for Vmax and Km could be obtained for both compounds. […] From these points, the following values were calculated. […] Using these values for Vmax and Km, the theoretical curves could be plotted for both compounds. For compound 39, the experimentally determined points fitted very well on the curve. […] Below this concentration, a sample of 12 exists as a solution. So, even though the molecules in a gel are in constant equilibrium with those in solution and the overall gelator concentration may increase well above the CGC (thus bringing about gelation), the concentration of gelator in solution can never exceed the CGC. The fact that the initial rate for 12 no longer increases once the substrate (i.e., gelator) concentration exceeds the CGC, proves that only the gelator molecules in solution can be cleaved by the enzyme.

Data set [2] can be described thus: TEM particle size of a compound of interest included in gels of gelator 12. The format is physicochemical. The conditions noted are these: for Crystal size, reference without gelator: DMSO/H2O 100 μL/900 μL. The method, then:
Transmission Electron Microscopy Measurements
A gel was prepared following one of the procedures described above. A small amount of the gel was carefully deposited on a carbon-coated copper grid, using a spatula. The excess solution was blotted with a filter paper, leaving a thin sample film. The samples were examined using a JEOL 1200EX (80-100 kV) and pictures were taken of representative parts. The samples were all prepared in duplo.
To a solution containing 4 mg (6.0×10^−3 mmol) of gelator 12 (CHex(AmPhe-6AQ)(AmEtOEtOH)2) and 1.22 mg (6.0×10^−3 mmol) of pyrene in 100 μL of DMSO, 900 μL of distilled water were quickly added.
To determine the stability in time of pyrene particles in a gel, samples were prepared as described in the previous paragraph and examined with TEM after 7 days, 18 days, 1 month and 2 months. As reference, samples containing only pyrene in DMSO/H2O (100 μL/900 μL) were also prepared. Moreover, to determine the effect of the gelator in solution, i.e., not in the gel, samples containing 4 mg (6.0×10^−3 mmol) of gelator 12 (CHex(AmPhe-6AQ)(AmEtOEtOH)2), 1.22 mg (6.0×10^−3 mmol) of pyrene, 100 μL of DMSO and 900 μL of 1N HCl were prepared. […] All samples were kept at room temperature, in the dark.
To a solution containing 1.96 mg (2.9×10^−3 mmol) of gelator 12 (CHex(AmPhe-6AQ)(AmEtOEtOH)2) and 1.0 mg (2.9×10^−3 mmol) of danazol in 50 μL of DMSO, 950 μL of distilled water were quickly added. […] In a reference sample consisting only of danazol in 100 μL of DMSO and 900 μL of distilled water, rod-shaped danazol particles are 0.5-10 μm wide and 15-53 μm long. […]

[3] abbreviates: from Lineweaver-Burke and Eadie-Hofstee plots, for 12 only points where V still increased.

Regarding `COC(=O)[C@H](Cc1ccccc1)NC(=O)[C@@H]1C[C@H](C(=O)O)C[C@H](C(=O)N[C@@H](Cc2ccccc2)C(=O)OC)C1` [Compound 30, CHex(AmPhe-OMe)2(COOH)], the Gel test result is “clear gel” in data set [1] (3 mg/mL in H2O); “gel” in data set [1] (EtOH/H2O mixtures); “gel” in data set [1] (PEG 400/H2O mixtures); “gel” in data set [1] (olive oil); “gel” in data set [1] (toluene).

Turning to `CCCC[C@H](NC(=O)[C@@H]1C[C@H](C(=O)O)C[C@H](C(=O)N[C@@H](CCCC)C(=O)OC)C1)C(=O)OC` [Compound 31, CHex(AmNleOMe)2(COOH)], the Gel test result in data set [1] (EtOH) and in data set [1] (PEG 400 (printed PEG for compound 20)) was “gel” throughout.

Regarding `CCCC[C@H](NC(=O)[C@@H]1C[C@H](C(=O)O)C[C@H](C(=O)N[C@@H](CCCC)C(=O)O)C1)C(=O)O` [Compound 32, CHex(AmNleOH)2(COOH)], the Gel test entry in data set [1] (H2O, concentration not given) is on record as “gel”.

Consider `CNC(=O)[C@H](Cc1ccccc1)NC(=O)[C@@H]1C[C@H](C(=O)N[C@@H](Cc2ccccc2)C(=O)NC)C[C@H](C(=O)OCc2ccccc2)C1` [Compound 33, CHex(AmPheAmMe)2(COOBn)], for which, in data set [1] (DMSO), the Gel test entry is listed as “turbid gel”.

Consider `O=C(O)[C@H]1C[C@@H](C(=O)N[C@@H](Cc2ccccc2)C(=O)Nc2ccc3ccccc3c2)C[C@@H](C(=O)N[C@@H](Cc2ccccc2)C(=O)Nc2ccc3ccccc3c2)C1` [Compound 34, CHex(AmPheAmβNA)2(COOH)], for which the Gel test result in data set [1] (H2O, concentration not given) was “gel”; in data set [1] (H2O/t-BuOH (TBA/H2O) mixtures) it was “gel”.

For `O=C(N[C@@H](CO)C(=O)Nc1ccc2ccccc2c1)[C@@H]1C[C@H](C(=O)N[C@@H](CO)C(=O)Nc2ccc3ccccc3c2)C[C@H](C(=O)OCc2ccccc2)C1` [Compound 35, CHex(AmSerAmβNA)2(COOBn)], the Gel test entry in data set [1] (DMSO/CH2Cl2 mixtures), in data set [1] (DMSO/EtOH mixtures), in data set [1] (DMSO/MeCN mixtures), in data set [1] (DMSO/MeOH mixtures), in data set [1] (DMSO/toluene mixtures) and in data set [1] (EtOH) was “gel” in each case. The Gel test entry in data set [1] (MeCN) is “gel”.

With `O=C(O)[C@H]1C[C@@H](C(=O)N[C@@H](CO)C(=O)Nc2ccc3ccccc3c2)C[C@@H](C(=O)N[C@@H](CO)C(=O)Nc2ccc3ccccc3c2)C1` [Compound 36, CHex(AmSerAmβNA)2(COOH)], the Gel test result in data set [1] (DMSO/CH2Cl2 mixtures) is on record as “gel”; in data set [1] (DMSO/EtOH mixtures) it was “gel”; in data set [1] (DMSO/H2O mixtures), “gel”; in data set [1] (DMSO/MeCN mixtures), “gel”; in data set [1] (DMSO/toluene mixtures), “gel”; in data set [1] (H2O, concentration not given), “gel”. In addition, the results for the Gel test entry in data set [1] (H2O/t-BuOH (TBA/H2O) mixtures) and in data set [1] (MeCN) were “gel” and “weak gel”, respectively.

Regarding `CC(C)C[C@H](NC(=O)[C@@H]1C[C@H](C(=O)O)C[C@H](C(=O)N[C@@H](CC(C)C)C(=O)Nc2ccc3ccccc3c2)C1)C(=O)Nc1ccc2ccccc2c1` [Compound 37, CHex(AmLeuAmβNA)2(COOH)], the Gel test result in data set [1] (DMSO/H2O mixtures), in data set [1] (H2O/MeOH mixtures), in data set [1] (H2O/iPrOH mixtures) and in data set [1] (H2O/t-BuOH (TBA/H2O) mixtures) was “gel” in each case.

As to `NC(=O)CC[C@H](NC(=O)[C@@H]1C[C@H](C(=O)O)C[C@H](C(=O)N[C@@H](CCC(N)=O)C(=O)Nc2ccc3ccccc3c2)C1)C(=O)Nc1ccc2ccccc2c1` [Compound 38, CHex(AmGlnAmβNA)2(COOH)], in data set [1] (H2O, concentration not given), the Gel test result is “gel”.

As for `O=C(O)CCCC(=O)N[C@@H](Cc1ccccc1)C(=O)Nc1ccc2ncccc2c1` [Compound 39, reference compound], the Solubility in water entry in data set [1] is listed as “water-soluble”. Moreover, the Gelation behaviour result in data set [1] (water) is given as “non-gelating”. Also, in the data set on α-chymotrypsin (setting [3]), the Michaelis constant (Km) turned out to be 4.9 mM and the maximum rate (Vmax) was 22.3 µmol/min. Also, the “Cleavage (6-AQ formation) by α-chymotrypsin” value in the data set on α-chymotrypsin (substrate 7.54 mM (12 as gel, 39 as solution), α-chymotrypsin 40 mM as printed) is “more readily cleaved”.

`C#C[C@]1(O)CC[C@H]2[C@@H]3CCC4=Cc5oncc5C[C@]4(C)[C@H]3CC[C@@]21C` [danazol]: in data set [2] (DMSO 100 μL + water 900 μL), the “Length of rod-shaped particles, reference without gelator” value is on record as 15-53 μm and the “Width of rod-shaped particles, reference without gelator” value is given as 0.5-10 μm. Besides, the “Presence of rod-shaped particles” value in data set [2] (freeze-dried gel of 12, 5:1) is “no rod-shaped particles were present”. In data set [2] (gel of 12, 1:1, some particles), the “Length of rod-shaped particles in gel” value was 9 μm and the “Width of rod-shaped particles in gel” value is 0.7 μm. In data set [2] (gel of 12, 2:1), the “Presence of rod-shaped particles” value is “no rod-shaped danazol particles are present”, the “Size of some particles in gel” value was 2 μm and the “Size of very few particles in gel” value is on record as 10 μm. In addition, in data set [2] (gel of 12, 5:1), the “Presence of rod-shaped particles” value is listed as “no rod-shaped particles are present” and the “Size of some particles in gel” value worked out at 400 nm. Also, the “Average particle size in gel” value in data set [2] (gel of 12, gelator:danazol 1:1, DMSO/water 50 μL/950 μL) was 140-700 nm. Further, in data set [2] (gel of 12, gelator:danazol 2:1), the “Average particle size in gel” value amounted to 28 nm. For the same compound, the “Average particle size in gel” value in data set [2] (gel of 12, gelator:danazol 5:1) amounted to 14 nm.

For the compound `c1cc2ccc3cccc4ccc(c1)c2c34` [pyrene], the “Crystal size, reference without gelator” value is 2-12 μm in data set [2] (after 2 months) and 0.4-9 μm in data set [2] (after 7 days, 18 days or 1 month). In data set [2] (gel of 12, 1:1, DMSO/H2O, after 1 month), the “Crystal size in gel” value was roughly 150 nm. Also, the “Particle size in gel” value is 37-185 nm in data set [2] (gel of 12, 1:1, DMSO/H2O, after 7 days, room temperature, dark) and 30-190 nm in data set [2] (gel of 12, 1:1, DMSO/H2O, after 18 days). The “Crystal size, gelator in solution” value in data set [2] (with 12 1:1 in DMSO/1N HCl 100 μL/900 μL (not gelled), after 7 days) is listed as 0.2-3 μm. Further, the “Size of larger crystals, gelator in solution” value in data set [2] (with 12 1:1 in DMSO/1N HCl (not gelled), after 1 month) amounted to 6 μm.

These data come from patent publication US7534915B2, “Non-symmetrical gelling agent” (Applied Nanosystems B.V., priority 2003, dated 2009).
